Source: US20130331357A1, “COMBINATION THERAPY OF HSP90 INHIBITORY COMPOUNDS WITH PROTEASOME INHIBITORS” (SYNTA PHARMACEUTICALS CORP., priority 2011, published 2013)

Assays:
[1] = tested on: H1838 cells; experiment: Cell viability assay, H1838 NSCLC cells; format: cell-based, Human; conditions: bortezomib day 1, compound 1 day 2; 72 hours after compound 1 exposure (FIG. 6)
Method: Human H1703, H1975, H1838 NSCLC cells, U266 multiple myeloma cells, HCT116 colon cancer cells and Detroit562 head and neck cancer cells were purchased from the American Type Culture Collection (Manassas, Va.). H1975, H1703, H1838 and U266 cells were grow in RPMI media, HCT116 cells were grown in McCoy's media and Detroit562 cells were grown in MEM. Fetal bovine serum (10%) was added to all media, along with 2 mM L-glutamine and antibiotics (100 IU/ml penicillin and 100 μg/ml streptomycin) purchased from Sigma Aldrich. Cells were maintained at 37° C., 5% CO2 atmosphere.
Cell viability was measured using the Cell Titer-Glo assay (Promega). In brief, cells were plated in 96-well plates in triplicate at optimal seeding density (determined empirically for each cell line) and incubated at 37° C., 5% CO2 atmosphere for 24 hr prior to the addition of drug or vehicle (0.3% DMSO) to the culture medium. At the end of the assay, Cell Titer-Glow was added to the wells per manufactures recommendation, shaken for two minutes and incubated for 10 minutes at room temperature. Luminescence (0.1 sec) was measured with a Victor II microplate reader (Perkin Elmer) and the resulting data were used to calculate cell viability, normalized to vehicle control.

[2] = tested on: H1703 cells; experiment: Cell Titer-Glo cell viability assay, H1703 NSCLC cells; format: cell-based, Human; conditions: for cells killed: viability 72 hr later
Method: Cells were maintained at 37° C., 5% CO2 atmosphere.
[…] […] Viability was assessed 72 hr later.
Combination Index (CI) was then determined using the median effect analysis software CalcuSyn 2.0 (CalcuSyn, Inc.). A Combination Index greater than 1, equal to 1 or less than 1 indicates antagonism, additivity and synergism, respectively.

[3] = Phase 1 clinical investigations, intravenous Compound 1; format: in vivo, human
Description: Compound 1 was advanced into phase 1 clinical investigations studying patients with refractory hematologic malignancies using two intravenous schedules of administration: weekly for 3 out of every 4 weeks and twice weekly without breaks dosing by one-hour infusion.

[4] = bortezomib day 1, compound 1 Day 2, 72 hours after compound 1 exposure (FIG. 4)
[5] = concurrent, one hour on both days 1 and 2, 72 hours after final drug exposure (FIG. 5)

patients with Grade 1-2 infusional reactions ([3]; phase 1 patients) [%]	Compound	cell death by microscopy [1]	cells killed ([2]; bortezomib alone 22 nM, 1 hr exposure Day 1 and Day 2) [%]	cell death by microscopy [2, 4]	cells killed ([2]; bortezomib on its own 15 nM, 8 hr pulse Day 1, washout) [%]	cell death by microscopy [2, 5]	cells killed ([2]; compound 1 alone 50 nM, 8 hr pulse, washout) [%]	cells killed ([2]; compound 1 alone 74 nM, 1 hr exposure Day 1 and Day 2) [%]	efficacy signals, hematologic malignancies ([3]; phase 1 AML and CML patients)	cardiac effects following the infusion ([3]; phase 1 patients)	efficacy signals, solid tumors ([3]; phase 1 patients)	severe hepatotoxicity ([3]; phase 1 patients, unlike geldanamycin-based HSP90 inhibitors)	dose limiting toxicities ([3]; phase 1 program, solid tumors and refractory hematologic malignancies, one-hour infusion)
–	CC(C)C[C@H](NC(=O)[C@H](Cc1ccccc1)NC(=O)c1cnccn1)B(O)O [bortezomib, reference compound]	weak activity	15	weak activity	25	weak activity	–	–	–	–	–	–	–
5	CC(C)c1cc(-c2nnc(O)n2-c2ccc3c(ccn3C)c2)c(O)cc1O [compound 1, 3-(2,4-dihydroxy-5-isopropyl-phenyl)-4-(1-methyl-indol-5-yl)-5-hydroxy-[1,2,4] triazole]	weak activity	–	weak activity	–	weak activity	10	15	declines in peripheral and bone marrow blasts	Moderate tachycardia and PR interval prolongation	partial responses in colorectal cancer and melanoma	has not been observed	reversible fatigue and diarrhea
